Measured values taken from patent US20120014979A1, “USE OF BCL6 INHIBITORS FOR TREATING AUTOIMMUNE DISEASES” (priority 2010, published 2012).

Test system: individual with symptoms indicative of lupus
Experiment: Treatment of Lupus Erythematosus in an individual (Example 2)
Type: in vivo, human
Experimental: The individual is a person with symptoms including chronic fever, malaise, joint pains, myalgias, fatigue, indicative of lupus. The individual has previously been treated, largely unsuccessfully, with cyclophosphamides, corticosteroids and immunosuppressants.
The individual is treated for 1 to 60 days sequentially with BPI-1 administered at a dose of 4 mg/kg daily.

Molecule	amelioration of lupus (severity and frequency of flares and their symptoms) (person, 4 mg/kg daily, 1 to 60 days sequentially)	results in equivalent or comparable trials with individuals exhibiting similar symptomatology (BCL6 inhibitors other than BPI, compared with BPI-1 treatment of lupus)
NH2-G(RRRQRRKKR)GG(RGIEHAAR)GG(DIM)G(EW)G(NEIF)G(AIA)G(FL)G-OH [BPI-1]	long-lasting amelioration of lupus with a reduction in the severity and frequency of flares and their symptoms	
O=C(O)CC(C(=O)O)N1C(=O)/C(=C2/C(=O)Nc3ccc(Br)cc32)SC1=S (centres unmarked) [79-6]		Equivalent results are obtainable
